US20220265657A1, “ADMINISTRATION METHOD AND DOSAGE REGIMEN FOR TREATMENT OF NEURODEGENERATIVE DISEASES USING TRAMETINIB AND MARKERS” (GENUV INC., priority 2019, published 2022)

Tested on: SH-SY5Y cells
Test: Immunocytochemistry of LC3, LAMP1 and lysotracker in SH-SY5Y cells
Format: cell-based
Method: Cell culture: SH-SY5Y neuroblastoma cells were cultured at 37° C., 5% CO2., in Dulbecco's Modified Eagle Medium/Ham's F-12 nutrient mixture (DMEM/F12) (Invitrogen, Carlsbad, Calif.) supplemented with 10% heat-inactivated fetal bovine serum containing 100 units/ml penicillin, 100 μg/ml streptomycin. Primary cortical neuron cultures were derived from embryo day 18 (E18) from ICR mice. The dissociated cells were plated on glass cover slips coated with poly-D-lysine in Neurobasal medium supplemented with 2% B27 (Invitrogen), 100 units/ml penicillin, 100 μg/ml streptomycin, and 2 mM L-glutamine. Primary NSCs from normal mice were isolated from the subventricular zone (SVZ) of 8 week-old C57BL/6 mice brain. NSCs from adult Tg2576 mice brain were obtained from Seoul National University Hospital. […]
Immunocytochemistry: SH-SY5Y cells or adult NSCs were placed on glass coverslips coated with poly-L-ornithine/laminin or poly-D-lysine, respectively. […] The percentage of coefficient was calculated using the pixels above threshold of fluorescence intensities. […] The fluorescence intensity was observed under a confocal microscopy using a LSM700 microscope (Carl Zeiss). The number of LysoTracker puncta was analyzed with Icy software.

CC(=O)Nc1cccc(-n2c(=O)n(C3CC3)c(=O)c3c(Nc4ccc(I)cc4F)n(C)c(=O)c(C)c32)c1 [trametinib]
co-staining of LC3-LAMP1 (even in the presence of Aβ1-42 oligomers): increased co-staining of LC3-LAMP1 | lysotracker-positive acidic puncta (in the presence of Aβ1-42 oligomers): increased lysotracker-positive acidic puncta
